# Measured values: PMC10860701 (ACS Medicinal Chemistry Letters, 2024)
# “Also recorded” adds a separate entry of the source.
# What was measured:
# [1] = tested on: HT-22 cells; test: TNFα-induced ROS; type: cell-based, mouse; settings: for ROS suppression at 40 μM / effect on TNFα-induced ROS, in words: 1 μg/mL TNFα; for ROS suppression at 40 μM: 40 μM compound, Figure 4A; for effect on TNFα-induced ROS, in words: all concentrations tested
# [2] = target: NAMPT (Homo sapiens, UniProt P43490); test: NAMPT coupled enzyme activity assay; type: biochemical
# [3] = tested on: THP-1 cells; test: Measurement of cellular NAD+ levels in THP-1 cell cultures; type: cell-based, human; settings: for ability to raise NAD+ levels compared with parent NP-A3-B2: initial screening, 3 μM, 24 h, data not shown
# [4] = tested on: HT-22 cells; test: Glutamate-induced ROS; type: cell-based, mouse; settings: 75 mM glutamate, 20 μM and 40 μM compound, Figure 4D
# Chain of NAMPT (P43490 whole entry): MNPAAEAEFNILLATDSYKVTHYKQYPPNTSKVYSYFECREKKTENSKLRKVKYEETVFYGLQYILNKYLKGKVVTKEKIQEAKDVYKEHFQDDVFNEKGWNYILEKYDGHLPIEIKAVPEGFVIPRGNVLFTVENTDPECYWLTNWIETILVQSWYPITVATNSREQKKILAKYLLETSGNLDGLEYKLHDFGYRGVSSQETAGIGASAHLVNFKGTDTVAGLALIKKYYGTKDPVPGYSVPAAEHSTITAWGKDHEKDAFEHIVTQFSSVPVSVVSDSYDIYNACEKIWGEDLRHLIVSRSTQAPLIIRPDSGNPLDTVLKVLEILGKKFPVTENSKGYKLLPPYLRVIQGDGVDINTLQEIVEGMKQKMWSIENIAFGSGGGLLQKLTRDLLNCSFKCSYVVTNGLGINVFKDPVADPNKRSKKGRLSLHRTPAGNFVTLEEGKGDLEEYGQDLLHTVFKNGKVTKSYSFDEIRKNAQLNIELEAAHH
structure (smiles),measurement,setting,value
COc1ccc(CN(CCC2(C(C)C)CCOC(C)(C)C2)C(=O)c2cccs2)cc1 (stereo not shown) [JGB-1-137],ROS suppression at 40 μM,[1],significantly suppressed ROS
COc1ccc(CN(CCC2(C(C)C)CCOC(C)(C)C2)C(=O)c2ccsc2)cc1 (stereo not shown) [JGB-1-127],"effect on TNFα-induced ROS, in words",[1],did not inhibit ROS generation
"O=C(NCc1ccncc1)Nc1ccc(S(=O)(=O)N2CC3CCC(C2)O3)cc1 [SBI-797812, reference compound]","effect on TNFα-induced ROS, in words",[1],no significant effect on ROS
COc1ccc(CN(CCC2(C(C)C)CCOC(C)(C)C2)C(=O)c2ccco2)cc1 (stereo not shown) [NP-A3-B2],ROS suppression at 40 μM,[1],significantly suppressed ROS
COc1ccc(CN(CCC2(C(C)C)CCOC(C)(C)C2)C(=O)c2cnc[nH]2)cc1 (stereo not shown) [JGB-1-147],"NAMPT enzyme activity, in words",[2],inhibitory activity; also recorded: inhibits NAMPT
CC(C)C1(CCN(Cc2ccc(N(C)C)cc2)C(=O)c2ccco2)CCOC(C)(C)C1 (stereo not shown) [JGB-1-155],concentration response for FK866 in the presence of compound,"[3]; THP-1 NAD+, Figure 3B",right-shifted
same,potency in THP-1 cell cultures relative to NP-A3-B2,"[3]; full concentration-response, NAD+",improved potency
same,ability to raise NAD+ levels compared with parent NP-A3-B2,[3],significantly greater ability to raise NAD^+ levels
same,ROS suppression at 40 μM,[1],significantly suppressed ROS
same,"reduction of TNFα-induced ROS, confirmation assay","[1]; 20 μM and 40 μM compound, Figure 4B",significant reduction
same,ROS levels under glutamate insult,[4],decreased ROS levels below that of the vehicle-treated control
CC(C)C1(CCN(Cc2ccc3[nH]ccc3c2)C(=O)c2ccco2)CCOC(C)(C)C1 (stereo not shown) [JGB-1-134],ability to raise NAD+ levels compared with parent NP-A3-B2,[3],significantly greater ability to raise NAD^+ levels
same,"effect on TNFα-induced ROS, in words",[1],did not inhibit ROS generation
